Test results reported in patent US12428408B2, “Fused heterocyclic mescaline derivatives” (Enveric Biosciences Canada Inc., priority 2022, dated 2025).
Read-outs that look alike come from different tables or passages of the source.

Columns and labels:
5-HT1A receptor [1] = target: T1, 5-HT1A receptor (Homo sapiens, UniProt P08908); assay: 5-HT1A receptor radioligand competition assay (SPA); type: binding
T1 construct: purchased Perkin Elmer 6110501400UA
T1 sequence (P08908 1-422): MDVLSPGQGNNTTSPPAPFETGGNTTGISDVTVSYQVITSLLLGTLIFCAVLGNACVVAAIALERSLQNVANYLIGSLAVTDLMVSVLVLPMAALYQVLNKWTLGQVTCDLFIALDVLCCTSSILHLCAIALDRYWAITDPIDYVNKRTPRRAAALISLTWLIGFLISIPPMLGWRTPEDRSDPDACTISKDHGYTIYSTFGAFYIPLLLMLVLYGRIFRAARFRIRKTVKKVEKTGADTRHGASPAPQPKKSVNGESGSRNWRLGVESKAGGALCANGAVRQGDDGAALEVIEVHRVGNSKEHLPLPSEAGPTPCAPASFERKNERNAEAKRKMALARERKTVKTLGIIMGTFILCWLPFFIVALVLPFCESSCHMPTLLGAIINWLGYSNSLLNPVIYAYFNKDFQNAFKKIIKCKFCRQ

[2] = target: T2, human serotonin transporter (SERT) (Homo sapiens, UniProt P31645); assay: biochemical; type: binding
T2 construct: purchased PerkinElmer RBHSTM400UA
T2 sequence (P31645 whole entry): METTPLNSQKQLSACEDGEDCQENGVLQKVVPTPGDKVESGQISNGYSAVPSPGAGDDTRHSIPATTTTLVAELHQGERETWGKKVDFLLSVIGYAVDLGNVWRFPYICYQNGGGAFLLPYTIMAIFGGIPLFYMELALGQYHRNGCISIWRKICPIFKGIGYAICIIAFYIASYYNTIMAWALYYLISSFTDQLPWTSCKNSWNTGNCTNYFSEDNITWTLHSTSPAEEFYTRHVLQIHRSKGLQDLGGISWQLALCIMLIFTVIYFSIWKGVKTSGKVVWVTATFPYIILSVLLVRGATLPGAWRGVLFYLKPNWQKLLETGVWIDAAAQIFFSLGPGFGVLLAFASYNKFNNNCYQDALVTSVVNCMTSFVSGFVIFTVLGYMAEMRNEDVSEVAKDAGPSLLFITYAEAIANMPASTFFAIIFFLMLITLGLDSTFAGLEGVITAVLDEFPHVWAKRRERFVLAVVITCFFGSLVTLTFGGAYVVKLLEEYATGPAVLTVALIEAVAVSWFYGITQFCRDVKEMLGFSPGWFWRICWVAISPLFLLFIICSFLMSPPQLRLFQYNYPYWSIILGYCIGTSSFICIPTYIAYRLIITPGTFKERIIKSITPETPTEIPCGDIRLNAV

5-HT1B (h) = target: T3, 5-HT1B (h) (Homo sapiens, UniProt P28222); assay: Competition assay to measure binding affinity at 5-HT1B receptor; conditions: test ligand 10 μM; [3H]GR125743 1 nM
T3 construct: host or cells: Chem-1 (RBL) cells
T3 sequence (P28222 whole entry): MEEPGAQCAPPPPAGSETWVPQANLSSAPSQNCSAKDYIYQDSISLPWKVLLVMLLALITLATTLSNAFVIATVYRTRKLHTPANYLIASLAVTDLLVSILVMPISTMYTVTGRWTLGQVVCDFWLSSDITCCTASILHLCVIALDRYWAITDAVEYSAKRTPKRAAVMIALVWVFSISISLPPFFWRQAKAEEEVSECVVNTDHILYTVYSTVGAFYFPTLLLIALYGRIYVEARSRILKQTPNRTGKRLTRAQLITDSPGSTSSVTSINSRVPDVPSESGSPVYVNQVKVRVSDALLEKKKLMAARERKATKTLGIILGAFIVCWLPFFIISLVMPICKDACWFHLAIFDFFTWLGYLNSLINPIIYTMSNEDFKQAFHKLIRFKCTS

5-HT1D (r) = target: T4, 5-HT1D (r) (Rattus norvegicus, UniProt P28565); assay: Competition assay to measure binding affinity at 5-HT1D receptor; conditions: test ligand 10 μM; [3H]serotonin 1 nM
T4 construct: host or cells: CHO cells
T4 sequence (P28565 whole entry): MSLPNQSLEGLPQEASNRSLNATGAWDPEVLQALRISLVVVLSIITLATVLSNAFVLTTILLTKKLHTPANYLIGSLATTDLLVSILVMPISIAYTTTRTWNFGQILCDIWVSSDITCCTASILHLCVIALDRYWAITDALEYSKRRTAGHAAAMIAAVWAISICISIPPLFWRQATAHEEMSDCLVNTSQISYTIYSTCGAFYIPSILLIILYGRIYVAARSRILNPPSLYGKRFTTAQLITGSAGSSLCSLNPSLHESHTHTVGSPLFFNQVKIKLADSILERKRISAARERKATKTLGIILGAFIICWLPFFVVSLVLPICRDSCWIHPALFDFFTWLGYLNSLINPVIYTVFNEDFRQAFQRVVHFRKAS

5-HT2B (h) = target: T5, 5-HT2B (h) (Homo sapiens, UniProt P41595); assay: Competition assay to measure binding affinity at 5-HT2B receptor; conditions: test ligand 10 μM; [3H]mesulergine 2 nM
T5 construct: host or cells: CHO cells

5-HT2C (h) = target: T6, 5-HT2C (h) (Homo sapiens, UniProt P28335); assay: Competition assay to measure binding affinity at 5-HT2C receptor; conditions: test ligand 10 μM; [125I](±)DOI 0.1 nM
T6 construct: host or cells: HEK-293 cells
T6 sequence (P28335 33-458): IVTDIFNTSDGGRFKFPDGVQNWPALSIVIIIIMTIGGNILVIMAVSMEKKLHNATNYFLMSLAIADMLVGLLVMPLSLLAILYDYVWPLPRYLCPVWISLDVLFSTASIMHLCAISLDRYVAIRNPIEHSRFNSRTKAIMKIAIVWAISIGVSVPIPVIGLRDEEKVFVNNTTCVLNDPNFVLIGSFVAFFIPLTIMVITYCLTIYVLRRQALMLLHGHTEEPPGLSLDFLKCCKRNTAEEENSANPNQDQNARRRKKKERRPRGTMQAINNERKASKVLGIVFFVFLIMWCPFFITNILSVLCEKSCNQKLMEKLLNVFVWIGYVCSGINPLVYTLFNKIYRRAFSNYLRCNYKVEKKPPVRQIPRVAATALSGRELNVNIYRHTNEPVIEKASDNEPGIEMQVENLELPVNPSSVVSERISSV

5-HT7 (h) = target: T7, 5-HT7 (h) (Homo sapiens, UniProt P34969); assay: Competition assay to measure binding affinity at 5-HT7 receptor; conditions: test ligand 10 μM; [3H]LSD 4 nM
T7 construct: host or cells: HEK-293 cells
T7 sequence (P34969 whole entry): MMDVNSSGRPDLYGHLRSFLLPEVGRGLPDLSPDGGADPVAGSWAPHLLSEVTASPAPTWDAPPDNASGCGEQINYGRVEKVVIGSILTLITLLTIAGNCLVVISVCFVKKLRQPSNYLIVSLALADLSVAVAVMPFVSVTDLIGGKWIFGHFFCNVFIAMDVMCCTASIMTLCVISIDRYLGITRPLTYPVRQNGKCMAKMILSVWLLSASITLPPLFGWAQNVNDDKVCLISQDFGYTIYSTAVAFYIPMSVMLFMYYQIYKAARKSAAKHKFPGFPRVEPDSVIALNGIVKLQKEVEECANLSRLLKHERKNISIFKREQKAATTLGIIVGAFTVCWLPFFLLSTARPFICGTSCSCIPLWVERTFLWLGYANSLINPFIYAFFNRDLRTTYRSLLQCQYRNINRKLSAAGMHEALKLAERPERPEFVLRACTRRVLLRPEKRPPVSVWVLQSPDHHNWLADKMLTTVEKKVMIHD

alpha2A (h) = target: T8, alpha2A (h) (Homo sapiens, UniProt P08913); assay: Competition assay to measure binding affinity at alpha2A receptor; conditions: test ligand 10 μM; [3H]RX 821002 1 nM; read-out: α-2A, percent of control-specific binding
T8 construct: host or cells: CHO cells
T8 sequence (P08913 1-465): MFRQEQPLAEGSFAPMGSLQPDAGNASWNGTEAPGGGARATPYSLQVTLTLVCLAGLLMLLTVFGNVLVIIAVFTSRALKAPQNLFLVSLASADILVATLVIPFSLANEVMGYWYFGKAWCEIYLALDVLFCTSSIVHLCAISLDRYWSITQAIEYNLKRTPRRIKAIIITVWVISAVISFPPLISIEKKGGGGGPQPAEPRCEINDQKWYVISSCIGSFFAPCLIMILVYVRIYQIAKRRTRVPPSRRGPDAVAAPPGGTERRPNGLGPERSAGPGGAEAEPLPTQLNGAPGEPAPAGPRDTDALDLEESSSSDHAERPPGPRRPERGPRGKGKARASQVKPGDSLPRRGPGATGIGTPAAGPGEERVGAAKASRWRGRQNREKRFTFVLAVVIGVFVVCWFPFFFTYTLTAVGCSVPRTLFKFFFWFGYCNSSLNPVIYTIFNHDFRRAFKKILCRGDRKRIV

D2 (h) = target: T9, D2 (h) (Homo sapiens, UniProt P14416); assay: Competition assay to measure binding affinity at D2L receptor; conditions: test ligand 10 μM; [3H]methylspiperone 0.3 nM
T9 construct: host or cells: HEK-293 cells
T9 sequence (P14416 whole entry): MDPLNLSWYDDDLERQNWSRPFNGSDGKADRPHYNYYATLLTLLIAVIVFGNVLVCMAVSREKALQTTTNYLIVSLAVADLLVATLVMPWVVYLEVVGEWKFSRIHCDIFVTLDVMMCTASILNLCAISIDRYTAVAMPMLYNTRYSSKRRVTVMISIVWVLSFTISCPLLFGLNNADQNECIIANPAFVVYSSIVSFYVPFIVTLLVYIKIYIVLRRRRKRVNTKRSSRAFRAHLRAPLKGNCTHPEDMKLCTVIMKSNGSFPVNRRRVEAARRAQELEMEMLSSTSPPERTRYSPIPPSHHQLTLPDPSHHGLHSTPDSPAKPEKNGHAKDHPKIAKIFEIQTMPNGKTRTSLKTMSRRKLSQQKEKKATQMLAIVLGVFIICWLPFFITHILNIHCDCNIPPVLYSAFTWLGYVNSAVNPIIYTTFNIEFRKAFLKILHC

D3 (h) = target: T10, D3 (h) (Homo sapiens, UniProt P35462); assay: Competition assay to measure binding affinity at D3 receptor; conditions: test ligand 10 μM; [3H]methylspiperone […]
T10 construct: host or cells: CHO cells
T10 sequence (P35462 whole entry): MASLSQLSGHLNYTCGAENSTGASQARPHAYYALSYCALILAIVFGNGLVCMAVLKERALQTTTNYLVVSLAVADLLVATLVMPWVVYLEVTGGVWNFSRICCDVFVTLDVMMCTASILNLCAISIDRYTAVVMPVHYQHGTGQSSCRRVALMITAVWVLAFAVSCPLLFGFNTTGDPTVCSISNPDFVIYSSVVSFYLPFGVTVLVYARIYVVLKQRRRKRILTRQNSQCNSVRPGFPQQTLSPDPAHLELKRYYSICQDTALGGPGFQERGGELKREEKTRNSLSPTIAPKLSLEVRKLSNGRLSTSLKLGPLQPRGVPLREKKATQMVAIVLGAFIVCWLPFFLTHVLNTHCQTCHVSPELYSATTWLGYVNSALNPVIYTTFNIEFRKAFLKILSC

DAT (h) = target: T11, DAT (h) (Homo sapiens, UniProt Q01959); assay: Competition assay to measure binding affinity at dopamine transporter (DAT); conditions: test ligand 10 μM; [3H]BTCP 4 nM
T11 construct: host or cells: CHO cells
T11 sequence (Q01959 whole entry): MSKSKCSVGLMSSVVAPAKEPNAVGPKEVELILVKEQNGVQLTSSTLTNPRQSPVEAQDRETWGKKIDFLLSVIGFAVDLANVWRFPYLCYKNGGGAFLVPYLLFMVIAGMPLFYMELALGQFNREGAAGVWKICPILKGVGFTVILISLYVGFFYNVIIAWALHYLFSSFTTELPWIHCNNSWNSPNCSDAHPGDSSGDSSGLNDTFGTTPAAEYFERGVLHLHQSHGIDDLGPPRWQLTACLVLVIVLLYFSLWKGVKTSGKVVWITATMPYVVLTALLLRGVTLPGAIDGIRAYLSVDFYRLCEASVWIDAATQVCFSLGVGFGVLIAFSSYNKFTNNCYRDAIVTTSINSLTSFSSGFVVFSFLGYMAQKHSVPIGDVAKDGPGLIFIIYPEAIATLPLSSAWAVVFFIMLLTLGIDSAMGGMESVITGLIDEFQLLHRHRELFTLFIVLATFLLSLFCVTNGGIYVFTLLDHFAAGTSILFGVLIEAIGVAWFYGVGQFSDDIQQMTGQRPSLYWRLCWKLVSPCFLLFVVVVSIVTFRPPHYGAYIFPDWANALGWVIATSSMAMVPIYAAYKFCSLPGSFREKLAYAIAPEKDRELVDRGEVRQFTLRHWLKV

MT1 (ML1A) (h) = target: T12, MT1 (ML1A) (h) (Homo sapiens, UniProt P48039); assay: Competition assay to measure binding affinity at MT1 receptor; conditions: test ligand 10 μM; [125I]2-iodomelatonin 0.01 nM
T12 construct: host or cells: CHO cells
T12 sequence (P48039 whole entry): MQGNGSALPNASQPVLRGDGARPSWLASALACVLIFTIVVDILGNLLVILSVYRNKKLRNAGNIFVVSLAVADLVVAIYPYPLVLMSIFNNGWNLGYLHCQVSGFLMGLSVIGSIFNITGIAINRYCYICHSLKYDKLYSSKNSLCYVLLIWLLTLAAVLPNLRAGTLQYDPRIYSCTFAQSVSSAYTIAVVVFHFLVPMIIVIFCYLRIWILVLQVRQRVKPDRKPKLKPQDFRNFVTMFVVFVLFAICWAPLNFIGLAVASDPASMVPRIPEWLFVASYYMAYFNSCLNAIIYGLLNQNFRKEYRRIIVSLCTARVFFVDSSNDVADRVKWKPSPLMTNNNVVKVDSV

NET (h) = target: T13, NET (h) (Homo sapiens, UniProt P23975); assay: Competition assay to measure binding affinity at norepinephrine transporter (NET); conditions: test ligand 10 μM; [3H]nisoxetine 1 nM
T13 construct: host or cells: CHO cells
T13 sequence (P23975 whole entry): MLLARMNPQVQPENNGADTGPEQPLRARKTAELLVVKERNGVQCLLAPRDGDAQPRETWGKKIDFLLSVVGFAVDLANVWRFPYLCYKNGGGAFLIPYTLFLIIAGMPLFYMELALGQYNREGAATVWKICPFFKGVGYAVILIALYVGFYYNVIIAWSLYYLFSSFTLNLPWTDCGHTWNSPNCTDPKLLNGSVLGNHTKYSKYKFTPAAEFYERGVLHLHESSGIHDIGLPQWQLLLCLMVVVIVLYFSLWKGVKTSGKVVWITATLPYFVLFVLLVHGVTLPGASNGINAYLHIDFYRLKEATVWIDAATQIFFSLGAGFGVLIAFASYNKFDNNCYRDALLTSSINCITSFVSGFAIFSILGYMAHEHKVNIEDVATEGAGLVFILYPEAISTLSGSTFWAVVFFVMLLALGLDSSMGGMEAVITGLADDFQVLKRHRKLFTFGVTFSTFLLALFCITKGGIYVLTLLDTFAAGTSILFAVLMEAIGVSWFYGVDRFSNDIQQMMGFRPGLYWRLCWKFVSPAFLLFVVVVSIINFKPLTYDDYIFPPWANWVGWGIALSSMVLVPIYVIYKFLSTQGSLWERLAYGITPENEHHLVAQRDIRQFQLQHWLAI

5-HT2A receptor = 5-HT2A receptor (Homo sapiens, UniProt P28223); assay: 5-HT2A receptor radioligand competition assay (SPA)
Sequence of 5-HT2A receptor (P28223 whole entry): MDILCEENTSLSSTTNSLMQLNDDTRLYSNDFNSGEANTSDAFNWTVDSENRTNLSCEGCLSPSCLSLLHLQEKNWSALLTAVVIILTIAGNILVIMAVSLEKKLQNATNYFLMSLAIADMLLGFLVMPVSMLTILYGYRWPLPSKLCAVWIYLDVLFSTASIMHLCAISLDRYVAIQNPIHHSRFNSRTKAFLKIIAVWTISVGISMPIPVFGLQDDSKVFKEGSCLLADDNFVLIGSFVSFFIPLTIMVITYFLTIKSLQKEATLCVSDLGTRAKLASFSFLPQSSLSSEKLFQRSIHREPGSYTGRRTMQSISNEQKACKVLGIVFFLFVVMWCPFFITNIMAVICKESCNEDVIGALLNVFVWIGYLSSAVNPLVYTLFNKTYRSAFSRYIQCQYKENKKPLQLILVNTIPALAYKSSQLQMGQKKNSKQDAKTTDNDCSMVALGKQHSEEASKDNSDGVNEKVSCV

5-HT1A receptor [3] = target: T1, 5-HT1A receptor; assay: Functional 5-HT1A receptor cAMP assay in CHO-K1/5-HT1A/Gα15 cells; type: cell-based; conditions: +5-HT1A cells, 4 μM forskolin, FIGS. 37B-37H
[4] = competition with 0.5 nM 8-hydroxy-DPAT [3H], test compound 3 nM to 1 mM, read-out: 5-HT1A, Ki

Row | Structure (SMILES) | Ki (5-HT1A receptor [1]) [µM] | Ki [2] [µM] | HT1B, percent of control-specific binding (5-HT1B (h)) [%] | HT1D, percent of control-specific binding (5-HT1D (r)) [%] | HT2B, percent of control-specific binding (5-HT2B (h)) [%] | HT2C, percent of control-specific binding (5-HT2C (h)) [%] | HT7, percent of control-specific binding (5-HT7 (h)) [%] | inhibition at 10 µM (alpha2A (h)) [%] | D2, percent of control-specific binding (D2 (h)) [%] | D3, percent of control-specific binding (D3 (h)) [%] | DAT, percent of control-specific binding (DAT (h)) [%] | MT1, percent of control-specific binding (MT1 (ML1A) (h)) [%] | NET, percent of control-specific binding (NET (h)) [%] | Ki (5-HT2A receptor) [µM] | Ki (5-HT1A receptor [1]; [4]) [µM] | 5-HT1A receptor engagement (change in cAMP levels), in words (5-HT1A receptor [3])
1 | CC(Cc1ccc2c(c1)OCCO2)NCc1ccc2c(c1)OCO2 (stereo not shown) [A(XII)] | 1.2 | 2.39 | 0 | 24 | 86 | 31 | 51 | 66 | 26 | 58 | 92 | 6 | 69 | 26 |  | 
2 | CC(Cc1ccc2c(c1)OCCO2)NCc1ccc2c(c1)OCCO2 (stereo not shown) [A(XIII)] | 1.5 | 2.91 | 11 | 38 | 85 | 34 | 52 | 77 | 28 | 54 | 90 | 12 | 50 | 102 |  | 
3 | O=C(Cc1cc2c(cc1Br)OCO2)NCCO [A(XIX)] |  | > 1000 | 0 | 0 | 7 | 22 | 1 | 10 | 0 | 0 | 0 | 15 | 0 | 18.8 | 586 | 
4 | CC(C)(C)OC(=O)NC1CN(CCc2ccc3c(c2)OCO3)C1 [A(XV)] |  | 64.3 | 1 | 29 | 58 | 36 | 58 | 6 | 0 | 53 | 39 | 0 | 11 | 86 | 3.1 | 
5 | CC(Cc1ccc2c(c1)OCCO2)N1CC(NC(=O)OC(C)(C)C)C1 (stereo not shown) [A(XVI)] |  | 58.1 | 27 | 37 | 90 | 79 | 62 | 86 | 21 | 82 | 16 | 3 | 24 | 39 | 1.4 | 
6 | CC(Cc1ccc2c(c1)OCCO2)NC1CCC1 (stereo not shown) [A(XVII)] | 23.3 | 1.71 | 0 | 0 | 47 | 20 | 24 | 64 | 2 | 19 | 84 | 1 | 18 | 188 |  | 
7 | N#CC(Cc1ccc2c(c1)OCO2)NC1CCC1 (stereo not shown) [A(XX)] |  | 286 | 0 | 14 | 53 | 41 | 26 | 3 | 24 | 0 | 39 | 14 | 1 | 42.1 | 123 | 
8 | COc1cc2c(cc1CC(=O)N1CCCC1)OCO2 [A(XXI)] |  | 847 | 0 | 14 | 33 | 32 | 20 | 0 | 0 | 7 | 29 | 7 | 0 | 338 | 71.3 | 
9 | CC(Cc1ccc2c(c1)OCCO2)NCc1ccccc1 (stereo not shown) [A(XXIII)] | 5.58 | 2.75 | 0 | 29 | 66 | 42 | 34 | 60 | 9 | 38 | 91 | 3 | 88 | 70 |  | 
10 | CN(C)CCc1c[nH]c2cccc(O)c12 [psilocin] |  |  |  |  |  |  |  |  |  |  |  |  |  |  |  | reduction in cAMP levels
11 | NCCc1c[nH]c2ccc(O)cc12 [serotonin, reference compound] |  |  | 97 | 101 |  |  |  | 18 | 15 | 73 | 8 | 7 | −3 |  |  | reduction in cAMP levels
